Laboratory results reported in patent US20240149298A1, “PREPARATION OF HYDROPHOBIC SURFACES” (Technion Research & Development Foundation Limited, priority 2021, published 2024).

What was measured:
[1] = Roughness (RMS) of spray-deposited fatty acid layer, dynamic confocal microscope; assay type: physicochemical; conditions: for Roughness [μm] (about 10% RSD): sprayed on stainless steel, room temperature; for Roughness [μm] (N = 3) / Roughness [μm]: spray coating; for Roughness [μm]: N = 5
Procedure: Roughness and coating thickness were measured using a dynamic confocal microscope (Leica DCM3D); data processing was performed using SensoMap Turbo software. The coating thickness was calculated as the difference in height between the lower and upper levels of a confocal profile measured after a scratch implementation on the coating using a 25G needle. Spray coating was performed by spraying a selected organic solution of a selected fatty acid or a selected mixture of fatty acids on a desired surface using commercially available spraying gun. Gun adjustment is required to obtain the optimal coating properties. Exemplary adjustment parameters included distance from the treated surface, which was optimal at around 30 cm, and pulse duration, which was optimal at 1-5 seconds (e.g., 1-2 seconds). Other parameters are described hereinabove. Exemplary solutions were sprayed onto a surface of stainless steel, at room temperature. Roughness (RMS) and wettability measurements were performed as described hereinabove.

[2] = tested on: L. innocua; experiment: Antimicrobial properties of fatty acid powders in liquid medium, drop-plate method; assay type: cell-based, Listeria innocua; conditions: 24 hours at 37° C.; for L. innocua [CFU mL^−1]: 50 milligram SFA powder per 1 mL suspension, control 2.4 ± 0.2 · 10^5; for L. innocua growth inhibition: powdered SFA
Procedure: (§1) Antimicrobial studies: The antimicrobial properties of fatty acid powders were evaluated by in liquid medium via the drop-plate method. One bacteria colony (E. coli or L. innocua) was incubated overnight in 4 mL Nutrient Broth (NB) liquid medium (Sigma Aldrich, Israel) at 37° C. under agitation (150 rpm) until the bacteria reached a stationary phase (about 10^9 CFU/mL). Then, the overnight bacteria culture was diluted in fresh NB medium (about 10^7 CFU/mL) and incubated for an additional 2 hours to achieve a logarithmic culture. Next, the logarithmic culture was diluted to 10^4 CFU mL^−1 in 1:100 NB medium.
(§2) 1 mL of the diluted bacterial suspension was incubated with 50 milligram of different SFA powders at 37° C. for 24 hours in 24-well-plates under agitation (100 rpm). The cultures were decimally diluted and 10 μL drops were transferred onto NB solid agar substrate. The colonies were counted after 24 hours incubation at 37° C.
(§3) To study the intrinsic bactericidal effect of the tested SFAs against both Gram-positive and Gram-negative bacteria, incubation of bacteria culture with powdered SFAs followed by colony counting was performed. Table 3 hereinbelow presents E. coli and L. innocua count in colony-forming unit (CFU) per milliliter, estimated by the drop-plate method following incubation for 24 hours at 37° C. with the SFA powders in respective liquid media.

[3] = tested on: E. coli; experiment: as above; assay type: cell-based, Escherichia coli; conditions: 50 milligram SFA powder per 1 mL suspension, 24 hours at 37° C.; control 1.2 ± 0.2 · 10^8
Procedure: as §1, §2, §3

[4] = Wetting properties: water contact angle (CA) of fatty acid coatings; assay type: physicochemical; conditions: for Contact angle [°] (about 5% RSD): sprayed on stainless steel, room temperature; for Contact angle [°] (N = 3) / Contact angle [°]: spray coating; for Contact angle [°]: N = 5
Procedure: Wetting properties of the coatings were characterized by CA and CAH measurements, which were performed using an Attension Theta Lite tensiometer and high-purity water or ethylene glycol (99.5%, Merck, Germany) droplets of 7 μL volume. Spray coating was performed by spraying a selected organic solution of a selected fatty acid or a selected mixture of fatty acids on a desired surface using commercially available spraying gun. Gun adjustment is required to obtain the optimal coating properties. Exemplary adjustment parameters included distance from the treated surface, which was optimal at around 30 cm, and pulse duration, which was optimal at 1-5 seconds (e.g., 1-2 seconds). Other parameters are described hereinabove. […] Roughness (RMS) and wettability measurements were performed as described hereinabove.

[5] = tested on: Botrytis cinerea; experiment: Anti-fungal effect of neat fatty acids on PDA agar plates; assay type: cell-based; conditions: neat fatty acid at centre of PDA plate, 24° C., 72 hours
Procedure: Anti-fungal studies: Botrytis cinerea (B. cinerea) isolate B05.10 was collected from Vitis vinifera. Botrytis cinerea spores were plated on potato dextrose agar (PDA) plates, each fatty acid powder was placed in the center of the plate, and the plates were then incubated at 24° C. for 72 hours. In the case of caprylic acid, a hole was punched in the middle of the agar plate in order to contain its liquid form.

[6] = tested on: Botrytis cinerea; experiment: Ex-planta rose petals, damaged area after Botrytis cinerea spore droplets; conditions: thick, medium and thin sprayed layers; 10^4 spores per milliliter, 30 μL droplets, 72 hours, room temperature
Procedure: Botrytis cinerea culture was diluted in potato dextrose broth (PDB) medium to a final concentration of 10^4 spores per milliliter. 30 μL droplets were put on the coated leaves and uncoated control leaves and left in room temperature protected from light for 72 hours. A damaged area can be observed below and surrounding each droplet. The damaged area was then measured using a caliper along its long and the short directions.

[7] = Contact angle hysteresis (CAH) of spray-coated fatty acid coatings; assay type: physicochemical; conditions: spray coating
Procedure: Wetting properties of the coatings were characterized by CA and CAH measurements, which were performed using an Attension Theta Lite tensiometer and high-purity water or ethylene glycol (99.5%, Merck, Germany) droplets of 7 μL volume.

[8] = Diethyl ether (Tb 36.4), 50 mg/ml
[9] = Diethyl ether (Tb 36.4), 50 mg/ml, listed as palmitic acid
[10] = Diethyl ether (Tb 36.4), 20 mg/ml

For `CCCCCCCCCCCCCCCCCCCC(=O)O` [Arachidic acid], the “Roughness [μm] (about 10% RSD)” value ([1]; Acetone, 2 mg/ml) was 2.7 μm, the “Roughness [μm] (about 10% RSD)” value ([1]; Diethyl ether, 10 mg/ml) was 4.3 μm and the “Roughness [μm] (about 10% RSD)” value ([1]; EtOH, 1 mg/ml) was 0.9 μm. For the same compound, the “L. innocua [CFU mL^−1]” value [2] was 0 CFU mL^−1, the “L. innocua growth inhibition” value [2] was “completely inhibited” and the “E. coli [CFU mL^−1]” value [3] was 9.6 ± 3.2 · 10^7 CFU mL^−1. For the same compound, the “Contact angle [°] (about 5% RSD)” value ([4]; Acetone, 2 mg/ml) was 134 °, the “Contact angle [°] (about 5% RSD)” value ([4]; Diethyl ether, 10 mg/ml) was 152 ° and the “Contact angle [°] (about 5% RSD)” value ([4]; EtOH, 1 mg/ml) was 119 °.

In the case of `CCCCCCCCCCCCCCCCCCCCCC(=O)O` [Behenic acid], the “Roughness [μm] (about 10% RSD)” value ([1]; Diethyl ether, 2 mg/ml) is reported as 4.2 μm, the “anti-fungal effect against Botrytis cinerea growth” value (from here on “anti-fungal effect”) [5] is reported as “do not present any anti-fungal effect” and the “Contact angle [°] (about 5% RSD)” value ([4]; Diethyl ether, 2 mg/ml) is reported as 156 °.

In the case of `CCCCCCCCCCCC(=O)O` [Lauric acid], the “Roughness [μm] (about 10% RSD)” value ([1]; EtOH, 10 mg/ml) is reported as 5.2 μm and the “Contact angle [°] (about 5% RSD)” value ([4]; EtOH, 10 mg/ml) is reported as 113 °.

With `CCCCCCCCCCCCCC(=O)O` [Myristic acid] the “Roughness [μm] (about 10% RSD)” value ([1]; Acetone, 10 mg/ml) was 4.2 μm, the “Roughness [μm] (about 10% RSD)” value ([1]; Diethyl ether, 20 mg/ml) was 5.6 μm and the “Roughness [μm] (about 10% RSD)” value ([1]; EtOH, 10 mg/ml) was 4.7 μm. The “Contact angle [°] (about 5% RSD)” value ([4]; Acetone, 10 mg/ml) was 120 °, the “Contact angle [°] (about 5% RSD)” value ([4]; Diethyl ether, 20 mg/ml) was 132 ° and the “Contact angle [°] (about 5% RSD)” value ([4]; EtOH, 10 mg/ml) was 115 °.

With `CCCCCCCCCCCCCCCC(=O)O` [Palmitic acid] the “Roughness [μm] (N = 3)” value [1, 8] was 4.4 ± 0.4 μm, the “Roughness [μm] (about 10% RSD)” value ([1]; Acetone, 15 mg/ml) was 5.0 μm and the “Roughness [μm] (about 10% RSD)” value ([1]; Diethyl ether, 10 mg/ml) was 3.2 μm. For the same compound, the “Roughness [μm] (about 10% RSD)” value ([1]; Diethyl ether, 20 mg/ml) was 4.8 μm, the “Roughness [μm] (about 10% RSD)” value ([1]; EtOH, 10 mg/ml) was 2.3 μm and the “Roughness [μm] (about 10% RSD)” value ([1]; MeOH, 10 mg/ml) was 3.6 μm. The “L. innocua [CFU mL^−1]” value [2] was 1.7 ± 0.5 · 10^4 CFU mL^−1, the “L. innocua growth inhibition” value [2] was “inhibited by an order of magnitude” and the “anti-fungal effect” value [5] was “do not present any anti-fungal effect”. For the same compound, the “E. coli [CFU mL^−1]” value [3] was 1.4 ± 0.6 · 10^8 CFU mL^−1, the “protection of rose petals against damage by Botrytis cinerea” value [6] was “most effectively inhibit damage propagation” and the “Contact angle [°] (N = 3)” value [4, 8] was 156.6 ± 2.3 °. For the same compound, the “Contact angle [°] (N = 3)” value [4, 9] was 156.6 °, the CA angle ([4]; spray-coated) was “above 150 °” and the “Contact angle [°] (about 5% RSD)” value ([4]; Acetone, 15 mg/ml) was 140 °. For the same compound, the “Contact angle [°] (about 5% RSD)” value ([4]; Diethyl ether, 10 mg/ml) was 145 °, the “Contact angle [°] (about 5% RSD)” value ([4]; Diethyl ether, 20 mg/ml) was 148 ° and the “Contact angle [°] (about 5% RSD)” value ([4]; EtOH, 10 mg/ml) was 111 °. For the same compound, the “Contact angle [°] (about 5% RSD)” value ([4]; MeOH, 10 mg/ml) was 137 °, the CA ([4]; thermally deposited on glass) was “below 140 °” and the “CAH [°] (N = 3)” value [7, 8] was 11.1 ± 4.6 °. The “CAH [°] (N = 3)” value [7, 9] was 11.1 °.

In the case of `CCCCCCCCCCCCCCCCCC(=O)O` [Stearic acid], the “Roughness [μm] (N = 3)” value ([1]; Acetone (Tb 56.0), 10 mg/ml) is reported as 11.9 ± 3.7 μm, the “Roughness [μm]” value ([1]; Acetone (Tb 56.0), 20 mg/ml) is reported as 7.5 ± 0.9 μm and the “Roughness [μm]” value [1, 10] is reported as 6.1 ± 1.0 μm. The “Roughness [μm] (N = 3)” value [1, 8] was 8.0 ± 0.6 μm, the “Roughness [μm] (N = 3)” value ([1]; EtOH (Tb 78.4), 10 mg/ml) was 1.5 ± 0.06 μm and the “Roughness [μm]” value ([1]; EtOH (Tb 78.4), 20 mg/ml) was 1.1 ± 0.1 μm. The “Roughness [μm] (about 10% RSD)” value ([1]; Acetone, 5 mg/ml) was 1.3 μm, the “Roughness [μm] (about 10% RSD)” value ([1]; Acetone, 20 mg/ml) was 7.5 μm and the “Roughness [μm] (about 10% RSD)” value ([1]; Diethyl ether, 15 mg/ml) was 5.7 μm. For the same compound, the “Roughness [μm] (about 10% RSD)” value ([1]; Diethyl ether, 20 mg/ml) was 6.1 μm, the “Roughness [μm] (about 10% RSD)” value ([1]; EtOH, 5 mg/ml) was 0.7 μm and the “Roughness [μm] (about 10% RSD)” value ([1]; EtOH, 20 mg/ml) was 1.1 μm. For the same compound, the “Roughness [μm] (about 10% RSD)” value ([1]; MeOH, 4 mg/ml) was 3.5 μm, the “L. innocua [CFU mL^−1]” value [2] was 1.9 ± 0.5 · 10^4 CFU mL^−1 and the “L. innocua growth inhibition” value [2] was “inhibited by an order of magnitude”. The “E. coli [CFU mL^−1]” value [3] was 1.8 ± 0.05 · 10^8 CFU mL^−1, the “effect of adding a food coloring agent on water contact angle” value ([4]; 0.02 gram/ml in diethyl ether plus coloring agent, spray-coated on glass) was “no change in water contact angle” and the “Contact angle [°] (N = 3)” value ([4]; Acetone (Tb 56.0), 10 mg/ml) was 156.4 ± 1.5 °. The “Contact angle [°]” value ([4]; Acetone (Tb 56.0), 20 mg/ml) was 156.5 ± 5.5 °, the “Contact angle [°]” value [4, 10] was 165.3 ± 1.1 ° and the “Contact angle [°] (N = 3)” value [4, 8] was 165.7 ± 4.4 °. For the same compound, the “Contact angle [°] (N = 3)” value ([4]; EtOH (Tb 78.4), 10 mg/ml) was 113.2 ± 4.6 °, the “Contact angle [°]” value ([4]; EtOH (Tb 78.4), 20 mg/ml) was 118.3 ± 5.8 ° and the “Contact angle [°] (about 5% RSD)” value ([4]; Acetone, 5 mg/ml) was 145 °. The “Contact angle [°] (about 5% RSD)” value ([4]; Acetone, 20 mg/ml) was 156 °, the “Contact angle [°] (about 5% RSD)” value ([4]; Diethyl ether, 15 mg/ml) was 149 ° and the “Contact angle [°] (about 5% RSD)” value ([4]; Diethyl ether, 20 mg/ml) was 165 °. The “Contact angle [°] (about 5% RSD)” value ([4]; EtOH, 5 mg/ml) was 110 °, the “Contact angle [°] (about 5% RSD)” value ([4]; EtOH, 20 mg/ml) was 118 ° and the “Contact angle [°] (about 5% RSD)” value ([4]; MeOH, 4 mg/ml) was 136 °. For the same compound, the “CAH [°] (N = 3)” value ([7]; Acetone (Tb 56.0), 10 mg/ml) was 2.3 ± 1.2 °, the “CAH [°] (N = 3)” value ([7]; Acetone (Tb 56.0), 20 mg/ml) was 2.0 ± 1.7 ° and the “CAH [°] (N = 3)” value [7, 10] was 2.2 ± 1.1 °. For the same compound, the “CAH [°] (N = 3)” value [7, 8] was 1.7 ± 1.4 °, the “CAH [°] (N = 3)” value ([7]; EtOH (Tb 78.4), 10 mg/ml) was 27.5 ± 7.0 ° and the “CAH [°] (N = 3)” value ([7]; EtOH (Tb 78.4), 20 mg/ml) was 11 ± 1.2 °.

In the case of `CCCCCCCC(=O)O` [caprylic acid, Caprylic acid], the “anti-fungal effect” value [5] is reported as “complete inhibition”.

With `C/C=C/C=C/C(=O)O` [sorbic acid] the “anti-fungal effect” value [5] was “significant growth inhibition” and the “properties of sprayed coating as single component” value ([4]; preliminary tests, data not shown) was “hydrophilic coating which was not stable over time”.
